From ChEMBL document CHEMBL1201862, “PubChem BioAssay data set” (2004)
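Five concentrations, 48 hours, 96-well plates. GI50 = concentration required for 50% inhibition of growth.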 Activity calls are given as the source filed them. Rule as the data show it: active = GI50 up to about 1.1 µM and inactive = higher.

Tests used:
Assay in all cases: NCI tumour cell line growth inhibition, 48 h
[1] = test system: CAKI-1
[2] = test system: HCT-15
[3] = test system: HT-29
[4] = test system: K562
[5] = test system: M14
[6] = test system: MCF7
[7] = test system: MDA-MB-231
[8] = test system: NCI-H226
[9] = test system: NCI-H460
[10] = test system: NCI-H522
[11] = test system: OVCAR-5
[12] = test system: SK-MEL-2
[13] = test system: SK-OV-3
[14] = test system: SNB-19
[15] = test system: SNB-75
[16] = test system: SR
[17] = test system: U-251
[18] = test system: UO-31
[19] = test system: MOLT-4
[20] = test system: SF-539

| Compound | GI50 [1] | GI50 [2] | GI50 [3] | GI50 [4] | GI50 [5] | GI50 [6] | GI50 [7] | GI50 [8] | GI50 [9] | GI50 [10] | GI50 [11] | GI50 [12] | GI50 [13] | GI50 [14] | GI50 [15] | GI50 [16] | GI50 [17] | GI50 [18] | GI50 [19] | GI50 [20] |
| --- | --- | --- | --- | --- | --- | --- | --- | --- | --- | --- | --- | --- | --- | --- | --- | --- | --- | --- | --- | --- |
| Cn1cnc([N+](=O)[O-])c1SCC(=O)O | > 100 µM (inactive) | > 100 µM | > 100 µM (inactive) | > 100 µM (inactive) | > 100 µM (inactive) | > 100 µM (inactive) | > 100 µM (inactive) | > 100 µM (inactive) | > 100 µM (inactive) | > 100 µM (inactive) | > 100 µM (inactive) | > 100 µM (inactive) | > 100 µM (inactive) | > 100 µM (inactive) | > 100 µM (inactive) | > 100 µM (inactive) | > 100 µM (inactive) | > 100 µM (inactive) | – | – |
| CN(C)CCCN1c2ccccc2Sc2ccc3ccccc3c21 | 5.13 µM (inactive) | 6.43 µM | 3.52 µM (inactive) | 1.86 µM (inactive) | 1.79 µM (inactive) | 5.75 µM (inactive) | 3.15 µM (inactive) | 6.58 µM (inactive) | 2.79 µM (inactive) | 7.94 µM (inactive) | 11.3 µM (inactive) | 5.79 µM (inactive) | 14.2 µM (inactive) | 14.8 µM (inactive) | – | 1.09 µM (active) | 7.23 µM (inactive) | 4.36 µM (inactive) | 2.92 µM (inactive) | 16.1 µM (inactive) |
| CC1(C)O[C@@H](CP(c2ccc3ccccc3c2)c2ccc3ccccc3c2)[C@H](CP(c2ccc3ccccc3c2)c2ccc3ccccc3c2)O1 | > 100 µM (inactive) | > 100 µM | 85.5 µM (inactive) | 77.1 µM (inactive) | > 100 µM (inactive) | 72.3 µM (inactive) | > 100 µM (inactive) | 72.6 µM (inactive) | > 100 µM (inactive) | 25.5 µM (inactive) | > 100 µM (inactive) | > 100 µM (inactive) | > 100 µM (inactive) | > 100 µM (inactive) | > 100 µM (inactive) | 77.8 µM (inactive) | > 100 µM (inactive) | > 100 µM (inactive) | 78.9 µM (inactive) | – |
| Cc1cc(S(=O)(=O)[N-]/C(=N/S(=O)(=O)c2cc(Cl)sc2Cl)[n+]2ccc(N(C)C)cc2)c(S)cc1Cl | 60.3 µM (inactive) | 42.7 µM | 30.6 µM (inactive) | 43.9 µM (inactive) | 30.3 µM (inactive) | 84.7 µM (inactive) | 77.3 µM (inactive) | 39.3 µM (inactive) | 44.3 µM (inactive) | 25.4 µM (inactive) | 49.3 µM (inactive) | 50.4 µM (inactive) | 42.9 µM (inactive) | – | – | 39.4 µM (inactive) | 45.2 µM (inactive) | 23.2 µM (inactive) | 84.3 µM (inactive) | 46.6 µM (inactive) |
| O=C(c1ccccc1)c1ccc2[nH]c(-c3c(Cl)c(Cl)c(Cl)c(Cl)c3C(=O)N/N=C/c3ccc(Cl)cc3)nc2c1 | 61.8 µM (inactive) | 24.2 µM | 35.2 µM (inactive) | 23.7 µM (inactive) | 30.1 µM (inactive) | 20.6 µM (inactive) | 20.7 µM (inactive) | 39.8 µM (inactive) | – | 19.5 µM (inactive) | 64.7 µM (inactive) | 29.4 µM (inactive) | 41.1 µM (inactive) | 43 µM (inactive) | 47 µM (inactive) | 28.2 µM (inactive) | 44.1 µM (inactive) | 42.6 µM (inactive) | 18.3 µM (inactive) | 64.9 µM (inactive) |
| CC(C)(C)c1cc(C(C)(C)C)c(SSc2c(C(C)(C)C)cc(C(C)(C)C)c(O)c2O)c(O)c1O | 11.5 µM (inactive) | 6.19 µM | 13.2 µM (inactive) | 6.43 µM (inactive) | 11.7 µM (inactive) | 10.3 µM (inactive) | 14.7 µM (inactive) | 15 µM (inactive) | 3.89 µM (inactive) | 3.92 µM (inactive) | 15.8 µM (inactive) | 14.4 µM (inactive) | – | 11.7 µM (inactive) | 14.8 µM (inactive) | 2.94 µM (inactive) | 10.5 µM (inactive) | 6.18 µM (inactive) | 2.67 µM (inactive) | – |
| CC1CC(C)CC(C)C(O)/C(C#N)=C/C=C/CC(C2CCCC2C(=O)O)OC(=O)CC(O)C(C)C1 (stereo not given) | < 0.01 µM (active) | 0.0131 µM | – | – | < 0.0121 µM (active) | 0.0102 µM (active) | < 0.0109 µM (active) | 0.0158 µM (active) | 0.0284 µM (active) | < 0.01 µM (active) | < 0.01 µM (active) | < 0.01 µM (active) | 0.0161 µM (active) | 0.0135 µM (active) | 0.0175 µM (active) | < 0.0116 µM (active) | 0.0115 µM (active) | 0.012 µM (active) | 0.022 µM (active) | < 0.01 µM (active) |
| COc1ccc(C(OCC2OC(n3cc(C)c(=O)[nH]c3=O)CC2n2cc(Cn3cc(Br)c(=O)[nH]c3=O)nn2)(c2ccccc2)c2ccccc2)cc1 (stereo not given) | > 100 µM (inactive) | > 100 µM | > 100 µM (inactive) | – | > 100 µM (inactive) | 16 µM (inactive) | > 100 µM (inactive) | > 100 µM (inactive) | – | > 100 µM (inactive) | > 100 µM (inactive) | > 100 µM (inactive) | > 100 µM (inactive) | > 100 µM (inactive) | > 100 µM (inactive) | > 100 µM (inactive) | 66.5 µM (inactive) | > 100 µM (inactive) | 4.36 µM (inactive) | > 100 µM (inactive) |
| CCOC(=O)c1cc(C)nc2c1c(=O)n(-c1ccccc1)c(=O)n2CCCCN1CCN(c2ccccc2)CC1 | 1.53 µM (inactive) | 49.3 µM | 36.6 µM (inactive) | 24.9 µM (inactive) | 38.9 µM (inactive) | 28.3 µM (inactive) | 48.1 µM (inactive) | > 100 µM (inactive) | – | 87.1 µM (inactive) | > 100 µM (inactive) | 64.9 µM (inactive) | > 100 µM (inactive) | – | > 100 µM (inactive) | 19 µM (inactive) | > 100 µM (inactive) | 6.17 µM (inactive) | 24.5 µM (inactive) | – |
| Cc1ccc2c(=O)[nH]sc2c1 | 5.4 µM (inactive) | 14.6 µM | 16.7 µM (inactive) | 5.58 µM (inactive) | 11.7 µM (inactive) | 17.1 µM (inactive) | 17.3 µM (inactive) | 19.7 µM (inactive) | 53.3 µM (inactive) | 2.38 µM (inactive) | 94 µM (inactive) | 37.7 µM (inactive) | > 100 µM (inactive) | 39.4 µM (inactive) | 71.6 µM (inactive) | 3.69 µM (inactive) | 14.8 µM (inactive) | – | 3.98 µM (inactive) | 12.6 µM (inactive) |
| CC(O)CCCCC(O)CCC[C@H](O)[C@H]1CCC([C@H]2CCC([C@@H](O)CCCCCCCCCCCCC3=C[C@H](C)OC3=O)O2)O1 (stereo not given in full) | 9.84 µM (inactive) | 14.7 µM | 10.7 µM (inactive) | – | 11.4 µM (inactive) | 5.25 µM (inactive) | 10.4 µM (inactive) | 9.59 µM (inactive) | 8.22 µM (inactive) | 7.64 µM (inactive) | 11.4 µM (inactive) | 8.77 µM (inactive) | 11.7 µM (inactive) | 10.3 µM (inactive) | 9.12 µM (inactive) | 0.0075 µM (active) | 10.8 µM (inactive) | 9.44 µM (inactive) | 3.9 µM (inactive) | 10.4 µM (inactive) |
| C[C@]12CC[C@@H]3c4cc(I)c(O)cc4CC[C@H]3[C@@H]1CC[C@@H]2O | 8.63 µM (inactive) | 2.48 µM | 17.3 µM (inactive) | 3.52 µM (inactive) | 4.09 µM (inactive) | 5.87 µM (inactive) | 5.25 µM (inactive) | 15.5 µM (inactive) | 3.64 µM (inactive) | 3.72 µM (inactive) | 12.7 µM (inactive) | 3.02 µM (inactive) | 4.25 µM (inactive) | 7.33 µM (inactive) | 3.17 µM (inactive) | 3.1 µM (inactive) | 4.48 µM (inactive) | 5.74 µM (inactive) | 5.42 µM (inactive) | – |
| Oc1cc(-c2cccc(Cl)c2)nc2ncccc12 | 0.101 µM (active) | 0.0489 µM | 0.0405 µM (active) | 0.0208 µM (active) | 0.0845 µM (active) | 0.122 µM (active) | 0.57 µM (active) | 0.378 µM (active) | 0.0605 µM (active) | 0.0474 µM (active) | – | 0.197 µM (active) | 0.163 µM (active) | 0.192 µM (active) | 0.971 µM (active) | 0.0378 µM (active) | 0.106 µM (active) | 2.52 µM (inactive) | 0.0545 µM (active) | 0.0532 µM (active) |
| NCCCCNCCCN1CC1 | 0.0893 µM (active) | 4.91 µM | 4.55 µM (inactive) | 1.75 µM (inactive) | 2.89 µM (inactive) | 20.6 µM (inactive) | 0.624 µM (active) | 2.67 µM (inactive) | 5.5 µM (inactive) | 2.47 µM (inactive) | 5.27 µM (inactive) | 0.752 µM (active) | 0.977 µM (active) | 1.86 µM (inactive) | 0.246 µM (active) | 2.29 µM (inactive) | 1.3 µM (inactive) | 1.77 µM (inactive) | 1 µM (active) | 0.628 µM (active) |
| CC1=CC(=O)[C@@H](O)[C@]2(C)[C@H]3[C@@]4(O)OC[C@@]35[C@@H](C[C@@H]12)OC(=O)C(OC(=O)CC1=CCCC1)[C@H]5[C@@H](C)[C@H]4O (stereo not given in full) | 0.167 µM (active) | 0.0593 µM | 0.0238 µM (active) | 0.0246 µM (active) | 0.0294 µM (active) | < 0.0142 µM (active) | 0.0559 µM (active) | 0.0167 µM (active) | 0.023 µM (active) | 0.0178 µM (active) | 0.105 µM (active) | 0.0547 µM (active) | 0.551 µM (active) | 0.0344 µM (active) | 0.0423 µM (active) | 0.0168 µM (active) | 0.0158 µM (active) | 0.0668 µM (active) | < 0.0145 µM (active) | 0.0169 µM (active) |
